{"source": "patent US4956355A", "about": "“Agents for the arrest and therapy of retroviral infections” (Colthurst Limited, priority 1987, dated 1990)", "key": {"HIV": {"system": "HIV", "assay": "Oral dehydroepiandrosterone sulphate in AIDS patients, T4 cell count", "type": "in vivo, human patients", "settings": "patients X and Y, 300 mg once per day then 100 mg, day 5 to day 17", "experimental": "Dehydroepiandrosterone sulphate was measured into unit doses of 300 mg and 100 mg and each unit dose enclosed in a soft gelatin capsule.\n(A) A patient sero positive for HIV and diagnosed as suffering from AIDS was treated as follows. For twelve consecutive days, the patient was treated by administering the encapsulated compound orally to the patient. For the first eleven days, a unit dose of 300 mg was administered, once per day. On the twelfth day, the patient was given a single unit dose of 100 mg of the compound.\nBlood samples were taken from the patients on five occasions over the twenty-six day period. The first tests were carried out on each patient on day 1 and included measurements of T1, T4 and T8 cell counts, as well as, sedimentation rate. The treatment commenced on day 5, and continued to day 17. From day 5 to day 16, each patient, as already discussed, received a single unit dose of 300 mg of dehydroepiandrosterone sulphate orally and on day 17 100 mg was administered. The aforementioned tests were repeated on each patient on day 9, day 17, day 24 and day 26."}, "[1]": {"system": "HIV in activated peripheral blood lymphocytes", "assay": "Inhibition of HIV mediated cytopathic effects / p24 antigen production in activated peripheral blood lymphocytes", "type": "cell-based", "settings": "for p24 antigen production: activated PBL, about 7 days after infection, FIG. 2", "experimental": "(§1) 1. […] All three viral strains were grown in the Tissue Culture Laboratory of the AIDS Activity Division of San Francisco General Hospital where titers of […] infectious units per ml were routinely achieved.\n(§2) 4. HIV soluble p24 antigen detection: Soluble p24 antigens were measured with the Abbott HIV antigen detection system.\n(b) Although the VB T lymphoma cell line behaves in a similar manner to peripheral blood CD4 positive T lymphocytes in regard to HIV induced cytopathic effects, the above described experiments were performed on phytohemagglutinin (PHA) activated lymphocytes to determine whether lymphocytes are more or less sensitive to Compounds A and B than is the VB cell line. In this assay system, at the time that multinucleated giant cells appeared within infected lymphocyte cultures, the supernatants were analyzed for the presence of HIV p24 antigens and were titered on indicator VB lymphoma cells to determine the titer of infectious virus present at each point.\nTo test whether the effects of compounds A and B on acute VB T lymphoma infection would be mimicked by activated peripheral blood lymphocytes (PBC), HIV at a multiplicity of infection of one was added to lymphocytes that had been activated for 48 hours with 2 μg per ml of PHA. After the initial infection for one hour, the activated lymphocytes were washed and resuspended for the one week of culture. Multinucleated giant cells began to form approximately 7 days after the initial infection, at which time the culture supernatants were harvested and tested for the presence of HIV p24 antigens. The accumulation of HIV p24 antigens in the supernatant is representative of production of HIV from infected cells."}, "HIV in HXB/H9 cell line": {"system": "HIV in HXB/H9 cell line", "assay": "Antiviral testing of chronically HIV infected cell line HXB", "type": "cell-based", "settings": "other than killing with compound B at 10^-4 molar", "experimental": "as §1\n2. Source of cells: The VB cell line used in Example 1 is a T lymphoma cell line that is highly susceptible to infection with HIV, and expresses high levels of cell surface CD4 molecules. This cell line forms syncytia within two days after infection with all strains of HIV tested to date. […] This is used to quantitate infection in the absence of syncytial formation, infection being quantitated by immunofluorescence assays. The HXB/H9 cell line (Example 6) is an H9 cell population that chronically produces the HTLV-IIIB strain of HIV and is utilised in experiments testing antiviral effects on chronically infected cell lines. […] Crowe et al. supra have devised an assay system that allows quantitation of HIV infection, and inhibition of infection using immunocytofluorographic analysis. In order to quantitate HIV infection in macrophages, they grow macrophages in Teflon (Trade Mark) culture vessels which maintain macrophages in suspension in vitro culture for up to six months. Cell surface and cytoplasmic immunofluorescence staining is then performed to quantitate antigens in macrophages by flow cytometry. […]"}, "VB T lymphoma cell line": {"system": "VB T lymphoma cell line", "assay": "Nonspecific toxicity to VB cell line", "type": "cell-based, human", "settings": "10^-4 molar", "experimental": "(§3) 7. Analysis of nonspecific toxicity to the target cells with Compounds A and B. The VB, H9 and HXB cell lines were exposed to different concentrations of Compounds A and B as were normal human macrophages for the length of time the drug was in contact with each cell line as described in the above assays. Cell numbers were counted, and live versus dead were determined by Trypan blue exclusion assays. These tests were required to determine a therapeutic index between nonspecific toxic effects on the described cells, compared with potential effective antiviral effects in vitro (Example 6).\n(§4) Compounds A and B were tested for inhibition of T lymphoma cell cytopathic effect at various drug concentrations after acute infection with HIV for 48 hours. […] It is possible that the diminished effects noted in later experiments could have been secondary to drug stability problems."}, "HIV in human macrophages [2]": {"system": "HIV in human macrophages", "assay": "Inhibition of cytoplasmic HIV p24 antigen in HIV-infected macrophages", "type": "cell-based", "settings": "10^-4 molar; three donors; FIG. 4", "experimental": "as §1\n(§5) 2. Source of cells: The VB cell line used in Example 1 is a T lymphoma cell line that is highly susceptible to infection with HIV, and expresses high levels of cell surface CD4 molecules. This cell line forms syncytia within two days after infection with all strains of HIV tested to date. […] This is used to quantitate infection in the absence of syncytial formation, infection being quantitated by immunofluorescence assays. The HXB/H9 cell line (Example 6) is an H9 cell population that chronically produces the HTLV-IIIB strain of HIV and is utilised in experiments testing antiviral effects on chronically infected cell lines. Human macrophages were prepared from peripheral blood mononuclear cells either obtained from the blood bank as a buffy coat, or as a leukophoresis preparation. Crowe et al. supra have devised an assay system that allows quantitation of HIV infection, and inhibition of infection using immunocytofluorographic analysis. In order to quantitate HIV infection in macrophages, they grow macrophages in Teflon (Trade Mark) culture vessels which maintain macrophages in suspension in vitro culture for up to six months. Cell surface and cytoplasmic immunofluorescence staining is then performed to quantitate antigens in macrophages by flow cytometry.\n3. Flow cytometry: An Ortho Cytofluorgraf II-S (Trade Mark) that has a biohazard containment flow cell was used for analysis of HIV infected samples. HIV p24 antigens were detected utilizing a mouse monoclonal anti-p24 (du Pont), and mouse antibodies were identified utilizing an FITC conjugated goat anti-mouse IgG. […]\nThe cells from the experiment described in Example 3 were analysed, and the cytoplasm was analysed for the presence of HIV p24 to directly test whether HIV p24 antigen production was inhibited within those infected cells. […]"}, "normal human macrophages": {"system": "normal human macrophages", "assay": "Nonspecific toxicity to normal human macrophages", "type": "cell-based", "experimental": "as §3"}, "HXB cell line": {"system": "HXB cell line", "assay": "Killing of HXB cells", "type": "cell-based, human", "settings": "10^-4 molar", "experimental": "as §3"}, "[3]": {"system": "HIV in chronically infected human macrophages", "assay": "Antiviral testing of chronically HIV infected macrophages", "type": "cell-based", "text": "as §5\n3. Flow cytometry: An Ortho Cytofluorgraf II-S (Trade Mark) that has a biohazard containment flow cell was used for analysis of HIV infected samples. HIV p24 antigens were detected utilizing a mouse monoclonal anti-p24 (du Pont), and mouse antibodies were identified utilizing an FITC conjugated goat anti-mouse IgG.\n6. Analysis of chronically infected cells: To determine whether compounds A and B are effective at inhibiting HIV expression in macrophages and chronically infected T cells, the following experiments were performed. The chronically infected T cell line, HXB/H9 was exposed to various concentrations of drug for four days in vitro. At four days, the HXB cells were assayed for the presence of p24 intracytoplasmically, and supernatants were assayed for the presence of infectious virus as described above.\nBecause macrophages can be infected and produce HIV for very long periods of time without substantial loss of viability, chronically infected cells were tested, specifically a population that was between 30 and 50% HIV antigen positive, for inhibition of cytoplasmic HIV p24 antigen production. FIG. 5 indicates the results of three separate experiments carried out."}, "HIV in human macrophages [4]": {"system": "HIV in human macrophages", "assay": "Inhibition of HIV production in normal human macrophages (supernatant p24, acute infection)", "type": "cell-based", "experimental": "as §1, §5, §2\n(c) To test whether Compounds A and B were effective at blocking acute infection of macrophages, macrophages from Teflon cultures were exposed at a multiplicity of 1 to HIV-DV in the presence or absence of various concentrations of drug (Examples 3-5). Normally, HIV expression peaks in human macrophages at approximately ten days after initial infection. Therefore, after infection for one hour at room temperature, followed by a wash and resuspension of the macrophages in various drug concentrations, macrophages were stained for the presence of p24 antigen at day ten. Culture supernatants from these macrophages were assayed for the presence of soluble p24, and infectious virus as described above.\nTo test whether compounds A and B might be active at inhibiting infection of normal human macrophages, a spectrum of drug concentrations were tested for inhibition of acute infection, and inhibition of HIV expression in chronically infected macrophages. […] After acute infection (one hour) cells were incubated in various concentrations of compounds A and B, and 7 days after the initial infection supernatants were harvested for p24 antigen quantitation. […]"}, "tumor cell lines": {"system": "tumor cell lines", "assay": "Toxicity to tumor cell lines, Examples 1 to 7", "type": "cell-based, human", "settings": "10^-4 molar; all experiments of Examples 1 to 7", "experimental": "as §3"}, "[5]": {"system": "HIV in VB T lymphoma cell line", "assay": "Inhibition of HIV mediated cytopathic effects (multinucleated giant/syncytial cell formation) in acutely infected VB tumor cell line", "type": "cell-based", "experimental": "as §1, §5\n5. Inhibition of acute infection: Several assays were utilized to test for inhibition of acute infection; these included:\n(a) Inhibition of multinucleated giant cell formation in acutely infected VB cells infected at a multiplicity of infection of 1, and scored two days after infection in the presence or absence of varying concentrations of drug, for the formation of multinucleated giant cells. (free virus is washed out after a one hour incubation pretreatment at room temperature). […] Supernatants were also isolated and the level of HIV p24 antigen determined. Infectious virus was measured in treated cultures by performing a syncytial assay as described above.\nas §4"}, "[6]": {"system": "peripheral blood lymphocytes", "assay": "Nonspecific toxicity to peripheral blood lymphocytes", "type": "cell-based, human"}}, "data": [{"smiles": "C[C@]12CC[C@H](OS(=O)(=O)O)CC1=CC[C@@H]1[C@@H]2CC[C@]2(C)C(=O)CC[C@@H]12", "note": "[dehydroepiandrosterone sulphate]", "values": [{"measurement": "T4 cell count", "setting": "HIV", "value": "stabilise"}]}, {"smiles": "C[C@]12CC[C@H](O)C[C@@H]1CC[C@@H]1[C@@H]2CC[C@]2(C)C(=O)[C@H](Br)C[C@@H]12", "note": "[B, 16α-bromoepiandrosterone]", "values": [{"measurement": "p24 antigen production", "setting": "[1]; 10^-4 molar", "value": "moderately inhibited"}, {"measurement": "p24 antigen production", "setting": "[1]; 10^-5 molar", "value": "slightly less inhibited"}, {"measurement": "antiviral effects in comparison with AZT, lymphocytes", "setting": "[1]; acute infection", "value": "inferior"}, {"measurement": "antiviral effect in acute infection studies of lymphocytes", "setting": "[1]; acute infection, conclusions", "value": "mild antiviral effect"}, {"measurement": "inhibition of HIV production of cytopathic effects in chronically infected lymphoma cell line", "setting": "HIV in HXB/H9 cell line", "value": "no specific inhibition"}, {"measurement": "toxicity to VB T lymphoma cell line", "setting": "VB T lymphoma cell line", "value": "extremely toxic"}, {"measurement": "HIV p24 cytoplasmic antigen production", "setting": "HIV in human macrophages [2]", "value": "substantially inhibited"}, {"measurement": "extreme toxicity seen in VB cells, in macrophages", "setting": "normal human macrophages; 10^-4 molar", "value": "not shared by either the normal peripheral blood lymphocytes or macrophages"}, {"measurement": "toxicity in normal macrophages", "setting": "normal human macrophages; 10^-4 to 10^-8 molar", "value": "not appreciable toxicity"}, {"measurement": "killing of HXB cells", "setting": "HXB cell line", "value": "killing"}, {"measurement": "inhibition compared with inhibition of acute infection of macrophages", "setting": "[3]; 10^-4 and 10^-5 molar, FIG. 5 vs FIG. 4", "value": "somewhat less than the inhibition of acute infection of macrophages"}, {"measurement": "inhibition of cytoplasmic HIV p24 antigen production in chronically infected macrophages", "setting": "[3]; both 10^-4 and 10^-5 molar, three experiments, FIG. 5", "value": "some inhibition"}, {"measurement": "decrease in production of HIV p24 antigens (supernatant)", "setting": "HIV in human macrophages [4]; 10^-4 through 10^-8 molar, 7 days after acute infection, FIG. 3", "value": "approximately 50%"}, {"measurement": "HIV infection and HIV expression in macrophages", "setting": "HIV in human macrophages [4]; in vitro, reproducible, six separate monocyte/macrophage donors", "value": "inhibit HIV infection and HIV expression in macrophages"}, {"measurement": "toxicity to tumor cell lines", "setting": "tumor cell lines", "value": "appreciable toxicity"}, {"measurement": "inhibition of HIV mediated multinucleated syncytial cell formation, compared with compound A", "setting": "[5]; VB cells, acute infection, 48 hours, FIG. 1, average of two experiments", "value": "more active"}, {"measurement": "antiviral effects in comparison with AZT, T lymphoma cells", "setting": "[5]; acute infection", "value": "inferior"}, {"measurement": "antiviral effect in acute infection studies of T lymphoma cells", "setting": "[5]; acute infection, conclusions", "value": "mild antiviral effect"}, {"measurement": "inhibition of cytopathic effect in two subsequent experiments", "setting": "[5]; compounds diluted in DMSO, possibly secondary to drug stability problems", "value": "less striking effect"}, {"measurement": "toxicity with the PBL cultures", "setting": "[6]; 10^-4 and 10^-5 molar", "value": "No appreciable toxicity"}, {"measurement": "extreme toxicity seen in VB cells, in normal peripheral blood lymphocytes", "setting": "[6]; 10^-4 molar", "value": "not shared by either the normal peripheral blood lymphocytes or macrophages"}, {"measurement": "toxicity to peripheral blood lymphocytes", "setting": "[6]; 10^-4 to 10^-8 molar", "value": "nor was there appreciable toxicity"}]}]}
